Tests used:
[1] = tested on: dopamine output in the striatum; experiment: Striatal dopamine output measured by microdialysis; type: in vivo, Male Wistar rats; details: for Increase of dopamine in the striatum compared to L-DOPA (comparison of AUC0-t): 50 mg/kg i.p., relative to L-DOPA; for Increase of dopamine in the striatum compared to L-DOPA (comparison of AUC0-t) / Baseline corrected dopamine output in the striatum, AUC0-t: Male Wistar rats; for Baseline corrected dopamine output in the striatum, AUC0-t: 50 mg/kg intraperitoneal, 10 mg/kg Carbidopa i.p. 30 min before, microdialysis in dorsolateral striatum
Experimental: The striatal output of dopamine was measured in Male Wistar rats following intraperitoneal administration of 50 mg/kg L-2-Amino-3-(3,4-dihydroxyphenyl) propionic acid (L-DOPA), L-2-Amino-2,3,3-trideutero-3-(3,4-dihydroxyphenyl) propionic acid (WO-A 2004/056724, Example 6) and L-2-Amino-2,3-dideutero-3-(3,4-dihydroxyphenyl) propionic acid (Example 6), respectively. Male wistar rats (BK Universal, Sollentuna, Sweden) weighing about 300 g at the time of experiment were anaesthetized with a cocktail containing fentanyl citrate (0.39 mg/kg) and fluanisone (12.5 mg/kg, Hypnorm®, Janssen-Cilag) and midazolam (6.25 mg/kg, Dormicum®, Roche) diluted in distilled water (1:1:2; 5 ml/kg i.p.) and mounted in a stereotaxic frame. Dialysis probes were implanted in the dorsolateral striatum (AP: +0.6: ML+3.0: DV −6.2 relative to bregma and the dural surface according to the atlas of Paxinos and Watson (1998)). Dialysis occurs through a semipermeable membrane (Filtral AN69, Hospal Industrie, France) with an active surface length of 3.5 mm. Dialysis experiments were conducted approximately 48 h after surgery in freely moving rats. The rats received 30 min before administration of test items 10 mg/kg Carbidopa, (i.p.). The dialysis probe was perfused with a physiological perfusion solution (Apoteksbolaget, Sweden) at a rate of […] set by a microinfusion pump (Harvard Apparatus, Holliston, Mass.). Dialysate was collected over 15 min intervals and automatically injected into a high performance liquid chromatography (HPLC) system. On-line quantification of dopamine in the dialysate was accomplished by electro-chemical detection (ESA, Chelmsford, Mass.). The location of microdialysis probes was verified in slices of formalin-fixed tissue stained with neutral red. The baseline corrected concentrations (fmol/min) were plotted over the time.

[2] = tested on: striatal output of norepinephrine; experiment: Striatal output of norepinephrine; type: in vivo; details: compared to L-DOPA
dopamine in the striatum = details: male Wistar rats; known from WO-A 2004/056724; cited from earlier work
[3] = Therapeutic equivalence during continuous intravenous infusion; type: in vivo
Description: The optimal infusion rate for L-DOPA methyl ester was 2.7 times that required for L-DOPA (Stocchi et al. 1992, Movement Disorders, 7: 249-256).

[4] = tested on: Parkinson's disease exhibiting severe on-off phenomena; details: continuous intravenous infusion, patients with Parkinson's disease with severe on-off phenomena; cited from earlier work
[5] = given orally or intraperitoneally, on a molar basis; cited from earlier work
[6] = cited from earlier work

SMILES: [2H]C([2H])(c1ccc(O)c(O)c1)[C@]([2H])(N)C(=O)O [L-2-Amino-2,3,3-trideutero-3-(3,4-dihydroxyphenyl) propionic acid]
- Increase of dopamine in the striatum compared to L-DOPA (comparison of AUC0-t) [1]: about twice as high
- Baseline corrected dopamine output in the striatum, AUC0-t [1]: 533 fmol/min*min
- Striatal output / formation of norepinephrine [2]: reduces the striatal output of norepinephrine
- Increase of dopamine in the striatum compared to non-deuterated L-DOPA (dopamine in the striatum): significantly more

SMILES: [2H][C@@H](c1ccc(O)c(O)c1)[C@]([2H])(N)C(=O)OC [Example 7, L-2-Amino-2,3(S)-dideutero-3-(3,4-dihydroxyphenyl)methyl propionate]
- Therapeutic equivalence to L-2-Amino-2,3-dideutero-3-(3,4-dihydroxyphenyl) propionic acid [3]: therapeutically equivalent

SMILES: COC(=O)[C@@H](N)Cc1ccc(O)c(O)c1 [L-DOPA methyl ester]
- Optimal infusion rate relative to that required for L-DOPA [4]: 2.7 times
- Equivalence to L-DOPA in animal experiments [5]: equivalent on a molar basis to L-DOPA
- Solubility [6]: highly soluble

SMILES: [2H][C@@H](c1ccc(O)c(O)c1)[C@]([2H])(N)C(=O)O [Example 6, L-2-Amino-2,3(S)-dideutero-3-(3,4-dihydroxyphenyl) propionic acid]
- Increase of dopamine in the striatum compared to L-DOPA (comparison of AUC0-t) [1]: threefold higher
- Increase of dopamine in the striatum compared to L-2-Amino-2,3,3-trideutero-3-(3,4-dihydroxyphenyl) propionic acid ([1]; Example 15 and Table 1): significantly more
- Baseline corrected dopamine output in the striatum, AUC0-t [1]: 685 fmol/min*min
- Striatal output / formation of norepinephrine [2]: does not block the formation of norepinephrine

SMILES: N[C@@H](Cc1ccc(O)c(O)c1)C(=O)O [L-2-Amino-3-(3,4-dihydroxyphenyl) propionic acid]
- Baseline corrected dopamine output in the striatum, AUC0-t [1]: 228 fmol/min*min
